{"source": "patent US8758825B2", "about": "“Sequestered antagonist formulations” (Purdue Pharma L.P., priority 2001, dated 2014)", "key": {"[1]": {"settings": "in comparison to a 15 mg dose of hydrocodone", "source_text": "In certain preferred embodiments, the opioid agonist is oxycodone or hydrocodone."}, "[2]": {"settings": "cited from earlier work; for Duration of action: after oral doses"}}}
{"smiles": "COc1ccc2c3c1O[C@H]1[C@@H](O)C=C[C@H]4[C@@H](C2)N(C)CC[C@@]341", "note": "[Codeine]", "values": [{"measurement": "Equianalgesic dose, Calculated Dose", "setting": "[1]", "result": 90.0, "unit": "mg"}]}
{"smiles": "COc1ccc2c3c1OC1C(=O)CC[C@H]4[C@@H](C2)N(C)CC[C@]314", "note": "(stereo partly shown) [Hydrocodone, 4,5-epoxy-3-methoxy-17-methylmorphinan-6-one]", "values": [{"measurement": "Equianalgesic dose, Calculated Dose", "setting": "[1]", "result": 15.0, "unit": "mg"}]}
{"smiles": "CN1CC[C@]23CCCC[C@H]2[C@H]1Cc1ccc(O)cc13", "note": "[Levorphanol]", "values": [{"measurement": "Equianalgesic dose, Calculated Dose", "setting": "[1]", "result": 1.8, "unit": "mg"}]}
{"smiles": "CCC(=O)C(CC(C)N(C)C)(c1ccccc1)c1ccccc1", "note": "(stereo not shown) [Methadone]", "values": [{"measurement": "Equianalgesic dose, Calculated Dose", "setting": "[1]", "result": 9.0, "unit": "mg"}]}
{"smiles": "COc1ccc2c3c1O[C@H]1C(=O)CC[C@@]4(O)[C@@H](C2)N(C)CC[C@]314", "note": "[Oxycodone, 4,5-expoxy-14-hydroxy-3-methoxy-17-methylmorphinan-6-one]", "values": [{"measurement": "Equianalgesic dose, Calculated Dose", "setting": "[1]", "result": 13.5, "unit": "mg"}]}
{"smiles": "C[C@H]1[C@H]2Cc3ccc(O)cc3[C@]1(C)CCN2CC1CC1", "note": "[cyclazocine]", "values": [{"measurement": "Duration of action", "setting": "[2]", "result": "~24", "unit": "h"}]}
{"smiles": "O=C1CC[C@@]2(O)[C@H]3Cc4ccc(O)c5c4[C@@]2(CCN3CC2CC2)[C@H]1O5", "note": "[naltrexone]", "values": [{"measurement": "Duration of action", "setting": "[2]", "result": "~24", "unit": "h"}, {"measurement": "Protein binding", "setting": "[2]; in vivo", "result": "approximately 21%"}, {"measurement": "Oral bioavailability", "setting": "[2]; oral administration", "result": "5-40%"}, {"measurement": "Time of absorption", "setting": "[2]; oral administration", "result": "≤ 1", "unit": "h"}]}
